Experimental data from patent US20160009752A1, “[…]-OXIMINO-AMINOALKYLETHERS AND PROCESS FOR PREPARATION THEREOF, USEFUL AS ANTIDIABETIC AND […] AGENTS” (COUNCIL OF SCIENTIFIC & INDUSTRIAL RESEARCH, priority 2013, published 2016).

Key:
L6 myotubes = assay: 2-3H-deoxyglucose uptake by skeletal muscle cells; type: cell-based, rat; details: for 2-deoxyglucose uptake, fold vs. control: 16 h
Method: The fold increase in 2-deoxy-glucose uptake in the presence of test compound by rat skeletal muscle cells (L-6 myotubes) was considered as % antihyperglycemic activity of the test compound which was carried out as follows. L6 myotubes were incubated with increasing concentrations of 14b and the standard drug rosiglitazone (10 μM) for 16 h. After incubation glucose uptake was assessed for 5 min in HEPES-buffered saline [140 mM NaCl, 20 mM HEPES, 5 mM KCl, 2.5 mM MgSO4, 1 mM CaCl2 (pH 7.4)] containing 10 μM 2-deoxyglucose (0.5 μCi/ml 2-[^3H]-deoxyglucose) at room temperature. Subsequently cells were rinsed with an ice-cold solution containing 0.9% NaCl and 20 mM D-glucose. To quantify the radioactivity incorporated, cells were lysed with 0.05 N NaOH and lysates were counted with scintillation fluid in a β-counter. Nonspecific uptake was determined in the presence of cytochalasin B (50 μM) during the assay, and these values were subtracted from all other values. Glucose uptake was measured in triplicate and normalized to total protein, was expressed as fold increase with respect to control cells.

sucrose loaded rat = assay: Sucrose loaded rat model (SLM), oral tolerance test; type: in vivo; parameters: % Antihyperglycemic activity SLM: concentration or dose not given beside the values
Text: On the day of experiment blood glucose of all the overnight fasted animals was checked by Glucostrips (Roche) using Glucometer (ACCU-CHEK II; Roche Diagnostics, USA). […] Animals were divided into groups consisting of five animals in each. […] The test compounds and standard drug was always prepared in the vehicle 1% gum acacia. […] Food (not water) was removed from the cages during the experimental period. […] Comparing the AUC of test sample or drug treated groups compared to control group determined the percent improvement in OGTT by test sample and standard drugs and termed as antihyperglycaemic activity. Statistical analysis between the groups was done by employing Students t test

db/db mice = assay: db/db mice: blood glucose, OGTT, serum lipid and insulin; type: in vivo; details: for decrease in plasma insulin levels / enhancement of HDL-cholesterol level / lowering of serum triglycerides level (TG) / lowering of total cholesterol (T-Chol) level: 15 days
Method: Male C57BL/KsJ-db/db mice (8 to 12 weeks old, 35-45 g body weight) were procured from National Animal Laboratory Centre (NALC) of Central Drug Research Institute (CDRI), Lucknow, India. Animals were housed in polypropylene cages, in controlled environment (temperature 25±2° C.; humidity 50-60%; light 300 lux at floor level with regular 12 h light-12 h dark cycle; noise level 50 decibel; ventilation 10-15 air changes per hour). They were provided with a standard laboratory diet (Dayal Industry, Barabanki, Lucknow) unless stated otherwise and had free access to water. The animals were allocated into groups of 5 animals in each. Prior to start of the test sample feeding, a vehicle training period was followed from day −3 to day 0 during which all the animals were given vehicle (1% gum acacia) at a dose volume of 10 ml/kg body weight. At day 0 the animals having blood glucose level between 180 to 300 mg/di were selected and divided into three groups containing 5 animals in each. One group was considered as control group while the other group one was treatment group. The treatment groups were given suspensions of 14b at 1.0 and 3.0 mg/kg body weight, dose, respectively. The control group was given an equal amount of vehicle. All the animals had free access to fresh water and normal diet. Random blood glucose of each mouse was checked daily at 11.00. […] Blood has been withdrawn from the retro-orbital plexus of mice eye for the estimation of lipid profile and insulin.
In type 2 diabetes, elevated blood glucose level due to defect in peripheral glucose disposal results in hyperglycaemia. To observe the improvement on hyperglycaemia 14b was orally gavaged for 15 consecutive days and after dosing blood glucose of control and treated group were measured.

[1] = Stability in simulated gastric and intestinal fluid; type: in vitro ADME

C/C(=N\OCCN1CCCCC1)[C@H]1CC[C@H]2[C@@H]3CC=C4C[C@@H](O)CC[C@]4(C)[C@H]3CC[C@]12C [Compound 14b, 3β-Hydroxy-pregna-5-en-20-one-O-(2-piperidin-1-yl-ethyl)-oxime]
2-deoxyglucose uptake, fold vs. control (L6 myotubes; 1.0 μM): 1.59±0.28 fold | 2-deoxyglucose uptake, fold vs. control (L6 myotubes; 2.5 μM): 2.61±0.45 fold | 2-deoxyglucose uptake, fold vs. control (L6 myotubes; 5.0 μM): 2.88±0.74 fold | 2-deoxyglucose uptake, fold vs. control (L6 myotubes; 10 μM): 3.37±0.12 fold | glucose uptake in presence of cytochalasin-B (L6 myotubes; cytochalasin-B 50 μM added to transport solution): completely blocked | minimum concentration increasing glucose uptake to a significant level (L6 myotubes; p<0.05): 1.0 µM | Blood glucose profile, 0 min post glucose load (sucrose loaded rat; 100 mg/kg): 94.2 ± 2.6 mg/dL | Blood glucose profile, 30 min post glucose load (sucrose loaded rat; 100 mg/kg): 120.8 ± 2.1 mg/dL | Blood glucose profile, 60 min post glucose load (sucrose loaded rat; 100 mg/kg): 101.4 ± 2.9 mg/dL | Blood glucose profile, 90 min post glucose load (sucrose loaded rat; 100 mg/kg): 89.4 ± 3.3 mg/dL | Blood glucose profile, 120 min post glucose load (sucrose loaded rat; 100 mg/kg): 69.4 ± 2.3 mg/dL | % Antihyperglycemic activity SLM (sucrose loaded rat; Table 2, sucrose loaded rat): 24.4% | anti-diabetic activity, in words (sucrose loaded rat; all the models including db/+ mice models): better anti-diabetic activity | decrease in plasma insulin levels (db/db mice; 1.0 mg/kg oral): 4.03% | enhancement of HDL-cholesterol level (db/db mice; 1.0 mg/kg oral): 6.18% | lowering of serum triglycerides level (TG) (db/db mice; 1.0 mg/kg oral): 13.8% | lowering of total cholesterol (T-Chol) level (db/db mice; 1.0 mg/kg oral): 13.3% | decrease in plasma insulin levels (db/db mice; 3.0 mg/kg oral): 8.06% | enhancement of HDL-cholesterol level (db/db mice; 3.0 mg/kg oral): 13.6% | lowering of serum triglycerides level (TG) (db/db mice; 3.0 mg/kg oral): 18.9% | lowering of total cholesterol (T-Chol) level (db/db mice; 3.0 mg/kg oral): 16.7% | blood glucose levels vs vehicle treated group, in words (db/db mice; 1.0 and 3.0 mg/kg oral, 15 consecutive days, FIG. 8): decline in their blood glucose levels | % Antihyperglycaemic activity (OGTT improvement) (db/db mice; day 10th, 1.0 mg/kg): 10.3% | Blood glucose profile, 0 min post glucose load (db/db mice; day 10th, 1.0 mg/kg): 211.6 ± 11.8 mg/dL | Blood glucose profile, 30 min post glucose load (db/db mice; day 10th, 1.0 mg/kg): 559.8 ± 24.8 mg/dL | Blood glucose profile, 60 min post glucose load (db/db mice; day 10th, 1.0 mg/kg): 568.0 ± 12.9 mg/dL | Blood glucose profile, 90 min post glucose load (db/db mice; day 10th, 1.0 mg/kg): 502.8 ± 23.6 mg/dL | Blood glucose profile, 120 min post glucose load (db/db mice; day 10th, 1.0 mg/kg): 437.8 ± 14.1 mg/dL | decline in fasting blood glucose level (db/db mice; day 10th, 1.0 mg/kg): ~21.2% | % Antihyperglycaemic activity (OGTT improvement) (db/db mice; day 10th, 3.0 mg/kg): 15.1% | Blood glucose profile, 0 min post glucose load (db/db mice; day 10th, 3.0 mg/kg): 190.2 ± 12.9 mg/dL | Blood glucose profile, 30 min post glucose load (db/db mice; day 10th, 3.0 mg/kg): 542.2 ± 24.1 mg/dL | Blood glucose profile, 60 min post glucose load (db/db mice; day 10th, 3.0 mg/kg): 523.2 ± 22.7 mg/dL | Blood glucose profile, 90 min post glucose load (db/db mice; day 10th, 3.0 mg/kg): 482.0 ± 20.5 mg/dL | Blood glucose profile, 120 min post glucose load (db/db mice; day 10th, 3.0 mg/kg): 414.0 ± 9.4 mg/dL | decline in fasting blood glucose level (db/db mice; day 10th, 3.0 mg/kg): ~29.1% | % Antihyperglycaemic activity (OGTT improvement) (db/db mice; day 15th, 1.0 mg/kg): 16.9% | Blood glucose profile, 0 min post glucose load (db/db mice; day 15th, 1.0 mg/kg): 183.6 ± 7.86 mg/dL | Blood glucose profile, 30 min post glucose load (db/db mice; day 15th, 1.0 mg/kg): 499.2 ± 36.1 mg/dL | Blood glucose profile, 60 min post glucose load (db/db mice; day 15th, 1.0 mg/kg): 560.6 ± 14.6 mg/dL | Blood glucose profile, 90 min post glucose load (db/db mice; day 15th, 1.0 mg/kg): 468.8 ± 19.5 mg/dL | Blood glucose profile, 120 min post glucose load (db/db mice; day 15th, 1.0 mg/kg): 383.8 ± 8.46 mg/dL | decline in fasting blood glucose level (db/db mice; day 15th, 1.0 mg/kg): around 25.5% | % Antihyperglycaemic activity (OGTT improvement) (db/db mice; day 15th, 3.0 mg/kg): 24.5% | Blood glucose profile, 0 min post glucose load (db/db mice; day 15th, 3.0 mg/kg): 160.2 ± 6.88 mg/dL | Blood glucose profile, 30 min post glucose load (db/db mice; day 15th, 3.0 mg/kg): 458.8 ± 16.6 mg/dL | Blood glucose profile, 60 min post glucose load (db/db mice; day 15th, 3.0 mg/kg): 513.2 ± 13.1 mg/dL | Blood glucose profile, 90 min post glucose load (db/db mice; day 15th, 3.0 mg/kg): 420.0 ± 13.2 mg/dL | Blood glucose profile, 120 min post glucose load (db/db mice; day 15th, 3.0 mg/kg): 348.0 ± 13.2 mg/dL | decline in fasting blood glucose level (db/db mice; day 15th, 3.0 mg/kg): ~35.1% | stability in simulated gastric fluid (SGF) ([1]; SGF): low stability | stability in simulated intestinal fluid (SIF) ([1]; SIF): good stability
